How the values were obtained:
[1] = test system: rats; settings: microinjection/injection in rats; cited from earlier work
[2] = target: T1, σ1 receptors (Homo sapiens, UniProt Q99720); test: σ1 receptor binding assay; settings: HEK-293 cell membranes, 10 nM (+)-[3H]-pentazocine, 120 min at 37° C.
T1 construct: endogenous in cells; host or cells: HEK-293 cell membranes
Protocol: Sigma-1 (σ1) and sigma-2 (σ2) receptor binding assays are carried out in membranes from HEK-293 (Human Embryonic Kidney) cells.
Confluent HEK-293 cells are harvested in PBS/5 mM EDTA. They are centrifuged at 2000 rpm for 5 min and then washed two times in PBS. Cells are homogenized in 20 mM Tris-HCL (pH=7.5) containing 5 mM EDTA, 0.5 mM PMSF and 0.5 μg/mL leupeptin using a Dounce homogenizer and sonicated for 5 minutes.
Nuclear debris and intact cells are removed by centrifugation at 3000 rpm for 10 minutes at 4° C. […]
Proteins are determined using the Bio Rad Protein Assay Dye Reagent and the membranes are aliquoted and frozen at −80° C. […]
Total binding is determined by incubating 50 μg of HEK-293 cell membranes with 10 nM (+)−[^3H]-pentazocine (Perkin-Elmer, 35 Ci/mmol) and assay buffer (50 mM Tris-HCl, pH=8.3) in a total volume of 200 μl. Non specific binding is determined in the presence of 10 μM unlabeled pentazocine. […] The filters are washed three times and the membrane-bound radioactivity is determined in a Microbeta scintillation counter. […]
Specific binding is determined by subtraction of non specific binding from total binding. […]

T1 sequence (Q99720 whole entry): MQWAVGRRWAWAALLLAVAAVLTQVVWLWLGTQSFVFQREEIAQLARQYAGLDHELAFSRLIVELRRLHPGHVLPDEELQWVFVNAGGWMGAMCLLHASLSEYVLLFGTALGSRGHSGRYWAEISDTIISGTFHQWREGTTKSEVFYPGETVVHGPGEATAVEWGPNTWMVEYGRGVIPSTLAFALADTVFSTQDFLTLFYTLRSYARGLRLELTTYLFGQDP

Row | SMILES | neck dystonia in rats [1] | IC50 in the σ1 receptor binding assay [2]
1 | Cc1ccccc1NC(=N)Nc1ccccc1C [DTG, 1,3-di-2-tolyl-guanidine] | induced neck dystonia | –
2 | COc1cc(CCC(=O)N2CCN(CCOc3ccc(F)cc3)CC2)cc(OC)c1OC.Cl [Example 35, 1-{4-[2-(4-Fluorophenoxy)Ethyl]Piperazin-1-yl}-3-(3,4,5-Trimethoxy-Phenyl)Propan-1-One Hydrochloride] | – | a little less active
3 | COc1cc(CC(=O)N2CCN(CCOc3ccccc3F)CC2)cc(OC)c1OC.Cl [Example 41, 1-{4-[2-(2-Fluorophenoxy)Ethyl]Piperazin-1-yl}-2-(3,4,5-Trimethoxy-Phenyl)Ethanone Hydrochloride] | – | a little less active
4 | COc1ccc(CCN2CCN(CCCc3ccccc3)CC2)cc1OC [SA-4503, 1-[2-(3,4-dimethoxyphenyl)ethyl]-4-(3-phenylpropyl)piperazine] | had no effect | –
